Measurements published in patent US8772495B2, “5-lipoxygenase-activating protein inhibitor” (Panmira Pharmaceuticals, LLC, priority 2008, dated 2014).
Values joined by “and” are separate entries in the source; they are usually repeats but may differ in a detail not shown here. Equal entries are not always repeated. Where two headings read alike, the source gives them in different places.

Tests used:
CYP1A2 = CYP1A2 (Homo sapiens (Human), UniProt P05177); assay: Extracellular cytochrome P450 inhibition (microsomes); type: in vitro ADME; settings: concentrations up to and exceeding 40 μM
Procedure: Aliquots of this mixture (89 μL) were delivered to each well of a 96-well polypropylene plate which contained an aliquot of inhibitor (1 μL). Final solvent concentrations were 1% (v/v) or less. Incubations were commenced with the addition of 10 μL β-NADPH (10 mM stock) to a final volume of 100 μL. […] Samples were centrifuged, and supernatant was transferred for LC-MS analysis.

CYP2C9 = CYP2C9 (Homo sapiens (Human), UniProt P11712); assay: as above; type: in vitro ADME; settings: concentrations up to and exceeding 40 μM
[1] = Thermodynamic aqueous solubility by HPLC; type: physicochemical; settings: water
Procedure: The suspension was equilibrated at 25° C. for 24 hours then the pH was measured. The suspension was then filtered through a glass fibre C filter into a 96 well plate. […] Quantitation was by HPLC with reference to a standard solution of approximately 0.1 mg.ml^−1 in DMSO. Different volumes of the standard, diluted and undiluted sample solutions were injected.
Analysis was performed on an Agilent HP1100 series system equipped with a diode array detector and using ChemStation software vB.02.01-SR1.

CYP3A4 [2] = target: T1, CYP3A4 (Homo sapiens (Human), UniProt P08684); assay: Extracellular cytochrome P450 inhibition (microsomes); type: in vitro ADME; settings: concentrations up to and exceeding 40 μM
CYP3A4 [3] = target: T1, CYP3A4; assay: Cellular cytochrome P450 induction in cryopreserved human hepatocytes; settings: tested at 10 μM, midazolam substrate
[4] = in vivo, po, 250 mg/kg/day
[5] = Liquid formulations for oral solutions/suspensions; type: physicochemical
Procedure: Values of pH reported were estimated based on pH indicating strips. […] Accordingly, provided in certain embodiments herein were formulations having a pH above about 9, above about 10 or of about 10. In certain embodiments, the formulation was buffered at a pH of about 10. All formulations prepared were sonicated for about 10 minutes.

[6] = Plasma binding (equilibrium dialysis); type: in vitro ADME, Monkey (cynomologus); settings: monkey plasma, read-out: % Bound (converted)
Procedure: Experiments were performed using equilibrium dialysis.

[7] = Phase I study: pharmacokinetics after single and multiple oral doses; type: in vivo; settings: human, plasma
From the text: Study Design: Single center, double-blind, randomized, placebo-controlled, single ascending dose followed by multiple ascending dose study.
Sample Size: (1) Single Dose Phase: eight (8) subjects (6 active, 2 placebo) per dose level; up to 5 dose levels are planned (a total of 40 subjects if all 5 dose levels are completed); and (2) Multiple Dose Phase: eight (8) subjects (6 active, 2 placebo) per dose level; up to 4 dose levels are planned (a total of 32 subjects if all 4 dose levels are completed).
Formulations: Compound 2 was supplied as an oral powder for reconstitution. Placebo solution matched. […] The placebo differed only in the absence of the active.
The following dosing cohorts were used:
Routes of Administration: All doses were administered orally with approximately 100 mL of water rinse. Subjects were fasted for at least 8 hours prior to dosing and for 2 hours after dosing. For BID dosing in the Multiple Dose Phase, when applicable, subjects were fasted for at least 2 hours prior to the second daily dose.
Plasma concentrations of Compound 1 were determined using a validated LC/MS method. Whole blood ionophore-stimulated leukotriene LTB4 and urinary LTE4 production were assayed by ELISA and mass spectrometry, respectively.
Analysis of Samples: Concentrations of Compound 1 was determined in plasma samples collected from subjects. Similarly, concentrations of LTB4 in plasma and urinary LTE4 were determined in blood and urine samples collected.

LTB4 in Rat Whole Blood = assay: Rat whole blood LTB4 inhibition assay; type: cell-based; settings: individual tests 1-5
[8] = oral, 10 mg, multiple dose 10 mg, Day 1
[9] = oral, 10 mg, multiple dose 10 mg, Day 11
[10] = oral, 50 mg, multiple dose 50 mg, Day 1
[11] = oral, 50 mg, multiple dose 50 mg, Day 11
[12] = oral, 150 mg, multiple dose 150 mg, Day 1
[13] = oral, 150 mg, multiple dose 150 mg, Day 11
[14] = oral, 450 mg, multiple dose 450 mg, Day 1
[15] = oral, 450 mg, multiple dose 450 mg, Day 11
[16] = po, 50 mg, single dose 50 mg, oral solution
[17] = po, 150 mg, single dose 150 mg, oral solution
[18] = po, 300 mg, single dose 300 mg, oral solution
[19] = po, 600 mg, single dose 600 mg, oral solution
[20] = po, 1000 mg, single dose 1000 mg, oral solution

T1 sequence (P08684 whole entry, looked up): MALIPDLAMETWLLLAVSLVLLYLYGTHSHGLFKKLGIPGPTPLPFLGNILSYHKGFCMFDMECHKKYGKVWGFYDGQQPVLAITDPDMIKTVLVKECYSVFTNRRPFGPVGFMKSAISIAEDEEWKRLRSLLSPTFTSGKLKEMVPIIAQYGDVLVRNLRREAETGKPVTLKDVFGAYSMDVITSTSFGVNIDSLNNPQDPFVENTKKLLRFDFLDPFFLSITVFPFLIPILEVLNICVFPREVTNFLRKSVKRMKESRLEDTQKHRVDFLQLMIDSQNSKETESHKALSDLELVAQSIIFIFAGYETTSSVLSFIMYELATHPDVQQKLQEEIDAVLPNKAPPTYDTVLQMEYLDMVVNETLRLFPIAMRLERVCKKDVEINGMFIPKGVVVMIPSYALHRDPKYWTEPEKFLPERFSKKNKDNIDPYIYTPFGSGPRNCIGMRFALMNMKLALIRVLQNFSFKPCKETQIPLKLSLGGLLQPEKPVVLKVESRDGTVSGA
Sequence of CYP2C9 (P11712 whole entry, looked up): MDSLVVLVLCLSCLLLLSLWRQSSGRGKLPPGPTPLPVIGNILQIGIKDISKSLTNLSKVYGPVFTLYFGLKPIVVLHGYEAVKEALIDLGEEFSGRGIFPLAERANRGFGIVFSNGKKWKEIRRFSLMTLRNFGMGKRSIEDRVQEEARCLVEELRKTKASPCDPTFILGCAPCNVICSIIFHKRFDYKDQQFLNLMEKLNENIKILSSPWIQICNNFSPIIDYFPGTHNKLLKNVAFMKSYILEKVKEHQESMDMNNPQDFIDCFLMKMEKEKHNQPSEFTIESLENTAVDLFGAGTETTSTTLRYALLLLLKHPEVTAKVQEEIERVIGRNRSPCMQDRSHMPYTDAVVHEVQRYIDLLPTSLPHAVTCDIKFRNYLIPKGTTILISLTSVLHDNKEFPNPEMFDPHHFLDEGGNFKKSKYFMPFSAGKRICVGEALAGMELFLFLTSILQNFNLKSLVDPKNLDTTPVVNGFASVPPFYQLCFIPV
Sequence of CYP1A2 (P05177 whole entry): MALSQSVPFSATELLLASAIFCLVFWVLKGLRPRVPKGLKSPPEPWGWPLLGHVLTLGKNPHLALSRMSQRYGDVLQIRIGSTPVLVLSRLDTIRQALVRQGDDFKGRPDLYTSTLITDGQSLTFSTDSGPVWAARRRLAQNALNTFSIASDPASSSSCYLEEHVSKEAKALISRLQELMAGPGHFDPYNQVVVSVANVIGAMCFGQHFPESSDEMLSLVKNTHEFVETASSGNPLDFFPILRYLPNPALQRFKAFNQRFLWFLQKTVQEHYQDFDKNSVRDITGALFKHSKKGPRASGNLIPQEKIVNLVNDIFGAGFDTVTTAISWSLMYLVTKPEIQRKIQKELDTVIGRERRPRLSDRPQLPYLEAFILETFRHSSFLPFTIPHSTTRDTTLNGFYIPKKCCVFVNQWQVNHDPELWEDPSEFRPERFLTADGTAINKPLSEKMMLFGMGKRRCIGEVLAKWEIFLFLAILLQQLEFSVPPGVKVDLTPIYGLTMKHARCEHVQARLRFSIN

## CCOc1ccc(-c2ccc(Cn3c(CC(C)(C)C(=O)[O-])c(SC(C)(C)C)c4cc(OCc5ccc(C)cn5)ccc43)cc2)cn1.[Na+] [Compound 2, sodium 3-[3-(tert-butylsulfanyl)-1-[4-(6-ethoxy-pyridin-3-yl)benzyl]-5-(5-methyl-pyridin-2-yl-methoxy)-1H-indol-2-yl]-2,2-dimethylpropionate]
CYP1A2
  apparent inhibition: No apparent inhibition
CYP2C9
  apparent inhibition: No apparent inhibition
[1]; 25° C.
  pH of unfiltered saturated solution: above 9
[1]; 25 °C, thermodynamic from solid, both batches
  solubility at 24 h: > 10000 µg/mL
CYP3A4 [2]
  apparent inhibition: No apparent inhibition
CYP3A4 [3]
  CYP3A4 induction: No apparent induction
[4]; female, CD-1, mouse, 4 days
  Liver weight: 1.2 ± 0.1
  Liver weight (% body weight): 4.4 % body weight
  liver weight change as compared to vehicle control: 5%
[4]; mouse
  necropsy findings: no gross abnormalities
[5]; 0.010 M sodium carbonate buffer, 1% v/v Lutrol and 0.05% splenda, pH 10, ~10 mg/mL
  Results (appearance of formulation): Clear solution
[5]; 0.010 M sodium carbonate buffer, 2% v/v ethanol and 0.05% splenda, pH 10, 10 mg/mL
  Results (appearance of formulation): Clear solution
[5]; 0.010 M sodium carbonate buffer, 5% v/v Ethanol and 0.05% splenda, pH 10, ~10 mg/mL
  Results (appearance of formulation): Some undissolved solid
[5]; 0.010 M sodium carbonate buffer, 5% v/v Simple syrup, pH 10, 10 mg/mL
  Results (appearance of formulation): Some undissolved solid
[5]; 0.010 M sodium carbonate buffer, pH 10, 10 mg/mL
  Results (appearance of formulation): Clear solution
[5]; 0.5% Methylcellulose, 3.33 mg/mL
  Results (appearance of formulation): Suspension
[6]
  fraction unbound at 10 μM: 0.003
[7]; [8]
  Cmax: 70 ± 10 nM
  Tmax: 4 ± 3.1 h
[7]; oral, 10 mg, multiple dose 10 mg, Day 1, read-out: AUClast
  AUC(0-t): 1.1 ± 0.2 µM·h
[7]; oral, 10 mg, multiple dose 10 mg, Day 1, read-out: t½ (converted)
  half-life: 32 ± 23 h
[7]; [9]
  Cmax: 130 ± 50 nM
  Tmax: 10 ± 6.9 h
[7]; oral, 10 mg, multiple dose 10 mg, Day 11, read-out: AUClast
  AUC(0-t): 2.4 ± 1.1 µM·h
[7]; oral, 10 mg, multiple dose 10 mg, Day 11, read-out: t½ (converted)
  half-life: 50 ± 41 h
[7]; [10]
  Cmax: 600 ± 200 nM
  Tmax: 4.2 ± 3 h
[7]; oral, 50 mg, multiple dose 50 mg, Day 1, read-out: AUClast
  AUC(0-t): 8.3 ± 2.9 µM·h
[7]; oral, 50 mg, multiple dose 50 mg, Day 1, read-out: t½ (converted)
  half-life: 19 ± 10 h
[7]; [11]
  Cmax: 900 ± 100 nM
  Tmax: 3.2 ± 2 h
[7]; oral, 50 mg, multiple dose 50 mg, Day 11, read-out: AUClast
  AUC(0-t): 13.5 ± 3.4 µM·h
[7]; oral, 50 mg, multiple dose 50 mg, Day 11, read-out: t½ (converted)
  half-life: 25 ± 11 h
[7]; [12]
  Cmax: 1400 ± 700 nM
  Tmax: 2.3 ± 0.8 h
[7]; oral, 150 mg, multiple dose 150 mg, Day 1, read-out: AUClast
  AUC(0-t): 16 ± 6.8 µM·h
[7]; oral, 150 mg, multiple dose 150 mg, Day 1, read-out: t½ (converted)
  half-life: 16 ± 7.7 h
[7]; [13]
  Cmax: 3000 ± 1200 nM
  Tmax: 2 h
[7]; oral, 150 mg, multiple dose 150 mg, Day 11, read-out: AUClast
  AUC(0-t): 33 ± 16 µM·h
[7]; oral, 150 mg, multiple dose 150 mg, Day 11, read-out: t½ (converted)
  half-life: 19 ± 13 h
[7]; [14]
  Cmax: 7300 ± 6000 nM
  Tmax: 2 h
[7]; oral, 450 mg, multiple dose 450 mg, Day 1, read-out: AUClast
  AUC(0-t): 57 ± 39 µM·h
[7]; oral, 450 mg, multiple dose 450 mg, Day 1, read-out: t½ (converted)
  half-life: 12 ± 4 h
[7]; [15]
  Cmax: 9300 ± 5400 nM
  Tmax: 2 h
[7]; oral, 450 mg, multiple dose 450 mg, Day 11, read-out: AUClast
  AUC(0-t): 76 ± 33 µM·h
[7]; oral, 450 mg, multiple dose 450 mg, Day 11, read-out: t½ (converted)
  half-life: 14 ± 4 h
[7]; [16]
  Cmax: 570 ± 300 nM
  Tmax: 2.2 ± 0.4 h
[7]; po, 50 mg, single dose 50 mg, oral solution, read-out: AUC0-24
  AUC(0-t): 6.5 ± 2.2 µM·h
[7]; po, 50 mg, single dose 50 mg, oral solution, read-out: t1/2 (converted)
  half-life: 12.8 ± 2.9 h
[7]; [17]
  Cmax: 2200 ± 500 nM
  Tmax: 2.3 ± 0.5 h
[7]; po, 150 mg, single dose 150 mg, oral solution, read-out: AUC0-24
  AUC(0-t): 21.7 ± 6.1 µM·h
[7]; po, 150 mg, single dose 150 mg, oral solution, read-out: t1/2 (converted)
  half-life: 11.1 ± 2.8 h
[7]; [18]
  Cmax: 3000 ± 1500 nM
  Tmax: 2.7 ± 1.5 h
[7]; po, 300 mg, single dose 300 mg, oral solution, read-out: AUC0-24
  AUC(0-t): 23.6 ± 5.9 µM·h
[7]; po, 300 mg, single dose 300 mg, oral solution, read-out: t1/2 (converted)
  half-life: 9.8 ± 2.5 h
[7]; [19]
  Cmax: 11200 ± 7000 nM
  Tmax: 2.3 ± 0.5 h
[7]; po, 600 mg, single dose 600 mg, oral solution, read-out: AUC0-24
  AUC(0-t): 90 ± 50 µM·h
[7]; po, 600 mg, single dose 600 mg, oral solution, read-out: t1/2 (converted)
  half-life: 14.1 ± 6.8 h
[7]; [20]
  Cmax: 18200 ± 7600 nM
  Tmax: 2 h
[7]; po, 1000 mg, single dose 1000 mg, oral solution, read-out: AUC0-24
  AUC(0-t): 110 ± 49 µM·h
[7]; po, 1000 mg, single dose 1000 mg, oral solution, read-out: t1/2 (converted)
  half-life: 8.3 ± 1.1 h
LTB4 in Rat Whole Blood
  IC50: 302 nM and 160 nM and 380 nM and 212 nM and 141 nM
